The nature of series [1]: Viability of dendritic cells (CCK-8 assay). Type of series: cell-based. The note with it: for viability at 100 μg/mL: DCs, CCK-8, mean ± S.D., triplicate, read-out: Cell Viability (%) (DCs). The procedure: (§1) In this study, the viability of D.C. cells was evaluated at a concentration of 100 μg/mL using a cell-counting-kit assay (CCK-8) obtained from Dojindo Molecular Technologies, Inc. (Kumamoto, Japan), which measured absorbance at a wavelength of 450 nm, following the methodology outlined by Chung et al.. The expression of the pro-inflammatory cytokine, TNF-α, in the culture supernatant was screened using the dendritic cells ELISA kit, as described in a previous study.

For the next series, the system named is TNF-α. Nature of the series: TNF-α expression in LPS-stimulated dendritic cells (ELISA). The format is cell-based. As to conditions: for IC50: Dendritic cell; for Anti-inflammatory activity (result in words): LPS-stimulated dendritic cells, pro-inflammatory cytokine / TNF-α production. The procedure:
as §1
In general terms: In an ELISA, binding on a coated surface is turned into a signal by an enzyme label.

Series [2] deals with cell lines derived from the brain, kidney, and colon. Also noted: method as in PMID 1501227, PMID 9443608. As to conditions: cited from earlier work.
Setting [3] is: read-out: Anti-Inflammatory Activity (IC50) TNF-α Expression (LPS/DCs).

Structures are written as SMILES. Where two headings read alike, the source gives them in different places.

We go through seven molecules from article PMC10533049, “Anti-Inflammatory Halogenated Monoterpenes from the Red Alga Portieria hornemannii” (Marine Drugs, 2023).

For the molecule `O=c1c(O)c(-c2ccc(O)c(O)c2)oc2cc(O)cc(O)c12` [quercetin, reference compound], the IC50 in series [1] (dendritic cells (DCs), positive control, read-out: Cytotoxicity against DCs, IC50) came to 78.8 ± 7.3 µM; in the series with TNF-α (LPS-stimulated DCs, unit inferred, read-out: IC50, reduction of TNF-α production in LPS-stimulated dendritic cells) it was 23.1 ± 5.2 µM.
`C=C[C@@](C)(Cl)[C@H](Cl)/C=C/C(=C/Cl)C(Cl)Cl` [Compound 5]: the viability – broadly, a per cent measure of how many cells are alive, often set against a control – at 100 μg/mL in series [1] was 49.1 ± 2.7%. For the same molecule, in the series on TNF-α (setting [3]), the IC50 was found to be 10.6 ± 1.3 µM. In the series on TNF-α, the “Anti-inflammatory activity (result in words)” value (“Anti-inflammatory activity” for short) is “significantly reduce the TNF-α”.
For `C=C[C@@](C)(Cl)[C@@H](Cl)/C=C/C(=C/Cl)C(Cl)Cl` [Compound 4], in that order: 51.1 ± 2.2%, 6.2 ± 1.1 µM and “significantly reduce the TNF-α”.
In the case of `C=C[C@@](C)(Cl)[C@@H](Br)/C=C/[C@](C)(Cl)C(Cl)Cl` [Compound 1, (3R,4S,5E,7S)-4-Bromo-3,7,8,8-tetrachloro-3,7-dimethyl-octa-1,5-diene], the viability at 100 μg/mL in series [1] came out at 47 ± 2.1%. Also, the IC50 in the series with TNF-α (setting [3]) stood at 2.5 ± 0.4 µM. In addition, in the series with TNF-α, the “Anti-inflammatory activity” value is “significantly reduce the TNF-α”.
`C=C(Cl)[C@](Cl)(CBr)CC[C@@H](Br)C(C)(C)Cl` [halomon]: the “Cytotoxicity in NCI human tumor cell line screen (result in words)” value in series [2] was “significant differential cytotoxicity”.
Take `C=C[C@@](C)(Cl)[C@@H](Cl)/C=C/C(C)(Cl)C(Cl)Cl` (relative stereo) [Compound 2, (3R*,4S*,5E)-3,4,7,8,8-Pentachloro-3,7-dimethyl-octa-1,5-diene]: the viability at 100 μg/mL in series [1] was found to be 88.8 ± 8.1%. In addition, in the series on TNF-α (setting [3]), the IC50 is > 100 µM.
In the case of `C=C[C@](C)(Cl)[C@H](Cl)/C=C/C(=C/Cl)C(Br)Br` [Compound 3, (3S,4R,5E,7Z)-3,4,8-trichloro-7-dibromomethyl-3-methyl-octa-1,5,7-triene], the viability at 100 μg/mL in series [1] turned out to be 80.2 ± 8.3%. Moreover, the IC50 with TNF-α (setting [3]) was > 100 µM. For the same molecule, the “Anti-inflammatory activity” value in the series on TNF-α is listed as “did not show any activity”.
